Assay results as given in US20240117005A1, “NOVEL BICYCLIC PEPTIDES” (THE COUNCIL OF THE QUEENSLAND INSTITUTE OF MEDICAL RESEARCH, priority 2021, published 2024).

Columns and labels:
[1] = tested on: CT26 cells; assay: WST-1 cell proliferation assay, CT26; type: cell-based, mouse; conditions: CT26, WST-1, 72 hours
Method: (A) CT26, 4T1 or MDA-MB-231 Cells were treated with inhibitors for 72 hours. Following inhibition, media was removed and replaced with WST-1 cell proliferation reagent. Absorbance was recorded at 450 nm after 1 hour. Data represent a single independent experiment performed in triplicate. Results are graphed as mean +/− standard error (SE). B) MDA-MB-231 or CT26 cancer cells were treated with vehicle control, DL-2-Batch 1 (original stock), DL-2-Batch 2 (current stock), DL-2-TBAB or linear PDL1. Cells were permeabilised and were probed with the DUOLINK ligation assay. Cover slips were mounted on glass microscope slides with ProLong nucblue glass Antifade reagent (Life Technologies). PDL1Ac and IMPα1 DUOLINK Digital images were analysed using ImageJ software (ImageJ, NIH, Bethesda, MD, USA) and graphs represent the mean DOT Fluorescent Intensity in the nucleus or the cytoplasm compartments with significant differences calculated as per one-way ANOVA comparison. (C) MDA-MB-231 or CT26 cancer cells were treated with vehicle control, DL-2-Batch 1 (Original stock), DL-2-Batch 2 (current stock), DL-2-TBAB or linear PDL1. Cells were permeabilised and were probed with the DUOLINK ligation assay. Cover slips were mounted on glass microscope slides with ProLong nucblue glass Antifade reagent (Life Technologies). PDL1-unmodified and IMPα1 DUOLINK digital images were analysed using ImageJ software (ImageJ, NIH, Bethesda, MD, USA) and graphs represent the mean DOT fluorescent intensity in the nucleus or the cytoplasm compartments with significant differences calculated as per one-way ANOVA comparison.
4T1, CT26 or MDA-MB-231 cancer cell lines were treated with DL-2 or DL-2-D bicyclic inhibitors for 72 hours. Following inhibition, media was removed and replaced with WST-1 cell proliferation reagent. Absorbance was recorded at 450 nm after 1 hour. Data represent a single independent experiment performed in triplicate; results are graphed as mean +/− standard error (SE).

[2] = tested on: metastatic initiating cells (MICs) from stage IV metastatic cancer patients; assay: Pre-clinical treatment of MICs from patient liquid biopsies; type: cell-based, human; conditions: cancer cells from NSCLC, TNBC and melanoma patients
Text: Mesenchymal MICs were isolated from TNBC, lung cancer and melanoma patient liquid biopsies (scored for RECIST v1.1 for immunotherapy/therapeutic resistance or responsiveness (Complete Response, Partial Response or Progressive Disease) and pre-clinically screened with either vehicle control or the nuclear PDL1 inhibitor, DL-2. Samples were fixed and immunofluorescence microscopy performed on these cells with primary antibodies targeting CSV, PDL1-PTM1 (acetylated nuclear PDL1), ALDH1A1 and ABCB5. Graph represents the CFI values for CSV, NFI for PDL1- PTM1, ALDH1A1 and FI for ABCB5 measured using the ASI Digital pathology automated system to select the nucleus minus background (n≥40 cells/sample/5 patients a group).

[3] = tested on: CSV, ABCB5, EGFR, FOXQ1, E-Cadherin in MDA-MB-231-Br cells; assay: High resolution digital pathology of mesenchymal/epithelial markers, MDA-MB-231-Br; type: cell-based, human
Method: To examine the signature of CD8, CSV, EGFR, ABCB5, FOXQ1, commercial PD-L1-28-8, nuclear PD-L1, cytoplasmic PDL1 in MDA-MB-231 TNBC cells/TNBC brain cancer clone cells (untreated or treated with bicyclic inhibitors targeting nuclear PD-L1-PTM1). MDA-MB-231/MDA-MB-231-Br cells were permeabilised by incubating with 0.5% Triton X-100 for 15 min, blocked with 1% BSA in PBS and were probed with either CSV (Mouse host), CD8 (mouse host), EGFR (Rabbit host), ABCB5 (Goat Host), ALDH1A (Rabbit Host), NODAL (Goat Host), nuclear PDL1 (rabbit host), cytoplasmic PD-L1 (rabbit host) visualized with a donkey anti-rabbit AF 488, anti-mouse AF 568, donkey anti-goat 647. […] Digital images were analyzed using automated ASI software (Applied Spectral Imaging, Carlsbad, CA) to determine the distribution and intensities automatically with automatic thresholding and background correction of the average nuclear fluorescence intensity (NFI), allowing for the specific targeting of expression of proteins of interest. Digital images were also analysed using ImageJ software (ImageJ, NIH, Bethesda, MD, USA) to determine the total cell fluorescence or cell surface only fluorescence for non-permeabilised cells. Digital images were analysed using ImageJ software (ImageJ, NIH, Bethesda, MD, USA) to determine either the Total Nuclear Fluorescent Intensity (TNFI), the Total Cytoplasmic Fluorescent Intensity (TCFI). […]

Question: Which results are given for `CCCCCCCCCCCCCC(=O)NC(C)C(=O)NC1CSCc2cc3cc(c2)CSC[C@H](NC(=O)[C@H](Cc2ccccc2)NC(=O)[C@H](C(C)CC)NC(=O)[C@H](Cc2ccccc2)NC(=O)[C@H]([C@@H](C)O)NC(=O)C(CC(C)C)NC1=O)C(=O)N[C@@H](CCCNC(C)=N)C(=O)N[C@@H](CC(C)C)C(=O)N[C@@H](CCCNC(=N)N)C(=O)N[C@@H](CCCCN)C(=O)NCC(=O)N[C@@H](CCCNC(=N)N)C(=O)NC(C(=O)N[C@@H](CCSC)C(=O)NC(CCSC)C(=O)N[C@@H](CC(=O)O)C(=O)NC(C(=O)N[C@@H](CCCCN)C(=O)NC(CCCCN)C(=O)O)C(C)C)CSC3` (mixture of isomers) [DL-2]?
Answer: inhibition of proliferation [1]: significantly inhibit the proliferation; inhibition of proliferation ([1]; listed as DL-2-TBMB): able to effectively inhibit the proliferation; expression of ABCB5, ALDH1A1 and PDL1-PTM1 in MICs [2]: inhibited expression; expression of the epithelial marker E-Cadherin [3]: able to induce expression; mesenchymal stem-like resistant protein markers (CSV, ABCB5, EGFR, FOXQ1) ([3]; vs vehicle control): significantly inhibit
